Literature values in patent US6174513A, “Stabilization of peptides and proteins for radiopharmaceutical use” (priority 1998, dated 2001).

Tested on: somatostatin receptors in a variety of human tumors

## C[C@@H](O)[C@@H]1NC(=O)[C@H](CCCCN)NC(=O)[C@@H](Cc2c[nH]c3ccccc23)NC(=O)[C@H](Cc2ccccc2)NC(=O)[C@@H](NC(=O)[C@H](N)Cc2ccccc2)CSSC[C@@H](C(=O)N[C@H](CO)[C@@H](C)O)NC1=O [Octreotide]
  Binding affinity to somatostatin receptors: very high binding affinity
